Earlier results in patent EP0699249B1, “METHODS FOR TREATING NON-COTTON-CONTAINING FABRICS WITH CELLULASE” (GENENCOR INTERNATIONAL, INC., priority 1994, dated 1995).

Biological target: CBH I and CBH II from Trichoderma longibrachiatum
Settings: competitive inhibition of CBH components

O=C[C@H](O)[C@@H](O)[C@H](O[C@@H]1O[C@H](CO)[C@@H](O)[C@H](O)[C@H]1O)[C@H](O)CO [cellobiose]
Ki: ~1000 µM
